From patent publication US7179829B2, “Substituted imidazolidines, process for their preparation, and their use as a medicament or diagnostic, and medicament comprising them” (Sanofi-aventis Deutschland GmbH, priority 2001, dated 2007)
Counter-ions that a name gives are not always drawn. Like-named read-outs stand apart in the source and are kept apart here.

Key:
[1] = biological target: rNHE3 (Rattus norvegicus, UniProt P26433); assay: recovery of intracellular pH (pHi) after acidification, BCECF fluorescence; format: cell-based
Procedure: In this test, the recovery of the intracellular pH (pHi) after an acidification, which starts when the NHE is capable of functioning, even under bicarbonate-free conditions, was determined. For this purpose, the pHi was determined using the pH-sensitive fluorescent dye BCECF (calbiochem, the precursor BCECF-AM is employed). The cells were initially loaded with BCECF. The BCECF fluorescence was determined in a “ratio fluorescence spectrometer” (Photon Technology International, South Brunswick, N.J., USA) with excitation wavelengths of 505 and 440 nm and an emission wavelength of 535 nm, and was converted into the pHi using calibration plots. The cells were incubated in NH4Cl buffer (pH 7.4) (NH4Cl buffer: 115 mM NaCl, 20 mM NH4Cl, 5 mM KCl, 1 mM CaCl2, 1 mM MgSO4, 20 mM Hepes, 5 mM glucose, 1 mg/ml BSA; a pH of 7.4 is established with 1 M NaOH) even during the BCECF loading. The intracellular acidification was induced by addition of 975 μl of an NH4Cl-free buffer (see below) to 25 μl aliquots of the cells incubated in NH4Cl buffer. The subsequent rate of pH recovery was recorded in the case of NHE1 for two minutes, in the case of NHE2 for five minutes and in the case of NHE3 for three minutes. To calculate the inhibitory power of the tested substances, the cells were initially investigated in buffers in which complete or absolutely no pH recovery took place. For complete pH recovery (100%), the cells were incubated in Na^+-containing buffer (133.8 mM NaCl, 4.7 mM KCl, 1.25 mM CaCl2, 1.25 mM MgCl2, 0.97 mM Na2HPO4, 0.23 mM NaH2PO4, 5 mM Hepes, 5 mM glucose, a pH of 7.0 is established with 1 M NaOH). […] Recovery of the intracellular pH at the tested concentration of a substance was expressed as a percentage of the maximum recovery. Using the Sigma-Plot program, the IC50 value of the substance in question was calculated for the individual NHE subtypes using the percentages for pH recovery.

[2] = tested on: adrenergic alpha2 receptor; conditions: cited from earlier work
[3] = tested on: imidazoline I1 receptor; conditions: cited from earlier work
[4] = biological target: NHE3 (Oryctolagus cuniculus, UniProt P26432); conditions: cited from earlier work
[5] = pH recovery recorded for three minutes, read-out: IC50 [μM], (rNHE3)

Sequence of rNHE3 (P26433 29-831): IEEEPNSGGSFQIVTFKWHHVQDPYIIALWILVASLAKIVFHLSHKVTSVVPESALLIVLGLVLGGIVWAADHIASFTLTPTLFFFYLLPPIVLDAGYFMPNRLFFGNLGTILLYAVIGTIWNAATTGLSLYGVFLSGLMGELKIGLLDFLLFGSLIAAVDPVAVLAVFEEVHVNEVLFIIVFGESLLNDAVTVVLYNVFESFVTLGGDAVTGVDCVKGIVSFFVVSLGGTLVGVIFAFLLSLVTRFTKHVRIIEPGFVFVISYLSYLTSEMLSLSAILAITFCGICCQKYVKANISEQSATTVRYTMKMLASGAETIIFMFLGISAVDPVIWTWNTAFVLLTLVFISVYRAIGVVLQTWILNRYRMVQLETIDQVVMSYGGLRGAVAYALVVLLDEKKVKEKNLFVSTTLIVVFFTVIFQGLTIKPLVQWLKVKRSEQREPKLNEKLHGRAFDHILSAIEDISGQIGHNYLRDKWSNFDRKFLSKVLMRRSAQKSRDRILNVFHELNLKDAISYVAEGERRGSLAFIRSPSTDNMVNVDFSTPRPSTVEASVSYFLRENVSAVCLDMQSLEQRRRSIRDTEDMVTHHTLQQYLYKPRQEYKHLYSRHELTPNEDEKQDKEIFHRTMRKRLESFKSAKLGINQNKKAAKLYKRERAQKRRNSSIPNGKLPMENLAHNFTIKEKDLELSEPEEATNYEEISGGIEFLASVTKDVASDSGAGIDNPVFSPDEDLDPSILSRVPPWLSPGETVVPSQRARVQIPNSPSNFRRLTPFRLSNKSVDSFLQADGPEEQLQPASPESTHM
Sequence of NHE3 (P26432 30-832): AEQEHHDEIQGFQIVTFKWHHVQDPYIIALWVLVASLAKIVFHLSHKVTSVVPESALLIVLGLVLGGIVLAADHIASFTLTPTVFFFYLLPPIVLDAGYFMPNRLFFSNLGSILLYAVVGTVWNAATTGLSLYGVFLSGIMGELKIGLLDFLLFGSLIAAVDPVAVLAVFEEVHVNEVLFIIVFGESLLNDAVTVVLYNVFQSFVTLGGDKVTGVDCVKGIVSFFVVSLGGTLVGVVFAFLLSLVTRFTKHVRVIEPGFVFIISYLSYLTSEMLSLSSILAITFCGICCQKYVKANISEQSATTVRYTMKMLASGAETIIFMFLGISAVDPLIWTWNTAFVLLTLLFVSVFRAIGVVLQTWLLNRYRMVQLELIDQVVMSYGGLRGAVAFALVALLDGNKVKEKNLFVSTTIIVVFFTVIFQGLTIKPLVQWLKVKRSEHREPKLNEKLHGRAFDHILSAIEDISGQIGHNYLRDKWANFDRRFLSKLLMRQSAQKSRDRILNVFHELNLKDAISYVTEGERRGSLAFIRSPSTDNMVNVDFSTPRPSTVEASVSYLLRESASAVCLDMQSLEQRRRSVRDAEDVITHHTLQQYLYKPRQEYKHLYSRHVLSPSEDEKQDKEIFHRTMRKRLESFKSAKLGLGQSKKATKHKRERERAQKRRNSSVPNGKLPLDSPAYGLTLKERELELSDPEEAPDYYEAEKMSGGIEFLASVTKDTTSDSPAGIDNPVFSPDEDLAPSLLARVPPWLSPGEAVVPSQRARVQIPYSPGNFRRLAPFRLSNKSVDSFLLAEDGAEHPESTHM

| Structure (SMILES) | IC50 [1, 5] [µM] | melting point [°C] | other results |
| --- | --- | --- | --- |
| CC1NC(=Nc2c(Cl)cccc2Cl)NC1C (centres unmarked) [Example 12, (2,6-dichlorophenyl)-(4,5-dimethylimidazolidin-2-ylidene)amine nitric acid salt] | – | – | IC50 [1]: ~3 µM |
| Clc1cccc(Cl)c1N=C1NCCN1 [Clonidine] | – | – | affinity for the adrenergic alpha2 receptor [2]: high affinity; affinity for the imidazoline I1 receptor [3]: high affinity |
| CC(C)[C@@H](CC[C@@H](C)[C@H]1CC[C@H]2[C@@H]3[C@H](O)C[C@H]4C[C@@H](NCCCNCCCCN)CC[C@]4(C)[C@H]3CC[C@]12C)OS(=O)(=O)O [Squalamine] | – | – | time to maximum potency as NHE3 inhibitor [4]: reaches its maximum potency only after one hour |

Second part, led by results:

| IC50 [1, 5] [µM] | melting point [°C] | Structure (SMILES) | other results |
| --- | --- | --- | --- |
| 1.1 | – | CC(C)[C@@H]1NC(=Nc2c(Cl)cccc2Cl)N[C@H]1C(C)C (racemic) [Example 7, trans-(2,6-Dichlorophenyl)-(4,5-diisopropylimidazolidin-2-ylidene)amine hydrochloride] | – |
| – | 110 | Cl.c1ccc(Oc2ccccc2N=C2N[C@@H]3CCCC[C@H]3N2)cc1 | – |
| 19 | 160 to 165 | Cl.FC(F)(F)c1cccc(Cl)c1N=C1N[C@H]2CCCC[C@@H]2N1 (relative stereo) [Example 5, trans-(2-Chloro-6-trifluoromethylphenyl)-(octahydrobenzimidazol-2-ylidene)amine hydrochloride] | – |
